Numbered stars: 1 amine (or outer) side, 2 acyl side, 3 side chain; on linkers, the order of the positions; unused ones are H or OH. Side chains are listed from the residue outwards. Peptide text beside a SMILES is read from it. * marks the point of attachment. C20 diacid = O=C(O)CCCCCCCCCCCCCCCCCCC(=O)*; C18 diacid = O=C(O)CCCCCCCCCCCCCCCCC(=O)*; γGlu = O=C(O)[C@H](CCC(=O)[*:2])N[*:1]; AEEA = NCCOCCOCC(=O)O
Biological target: glucagon receptor (Homo sapiens, UniProt P47871)
Assay: cell-based
Procedure: The cells (14000 per well) were incubated (37° C., 5% CO2) overnight in 384-well plates. Next day the cells were loaded with a calcium responsive dye that only distributed into the cytoplasm. Probenecid, an inhibitor of the organic anion transporter, was added to prevent the dye from leaving the cell. A PDE inhibitor was added to prevent formatted cAMP from being degraded. […] End point data were collected after 6 minutes. An increase in intracellular cAMP was proportional to an increased in calcium concentrations in the cytoplasm. […] EC50-values were calculated in Prism5.

Chain of glucagon receptor (P47871 26-477): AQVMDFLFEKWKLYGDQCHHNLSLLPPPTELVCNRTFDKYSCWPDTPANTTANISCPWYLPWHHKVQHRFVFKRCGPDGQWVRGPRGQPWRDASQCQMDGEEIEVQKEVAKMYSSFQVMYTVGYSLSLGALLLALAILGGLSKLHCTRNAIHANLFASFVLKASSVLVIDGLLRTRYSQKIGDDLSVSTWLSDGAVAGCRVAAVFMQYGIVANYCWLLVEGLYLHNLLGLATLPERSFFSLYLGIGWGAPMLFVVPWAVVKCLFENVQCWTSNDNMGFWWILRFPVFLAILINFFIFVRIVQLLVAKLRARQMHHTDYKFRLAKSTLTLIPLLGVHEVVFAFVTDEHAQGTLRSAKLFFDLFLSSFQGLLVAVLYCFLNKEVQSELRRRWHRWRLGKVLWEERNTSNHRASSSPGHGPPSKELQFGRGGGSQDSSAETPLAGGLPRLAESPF

| Compound | EC50 [nM] |
| --- | --- |
| CC(C)C[C@H](NC(=O)[C@H](Cc1ccc(O)cc1)NC(=O)[C@H](CCCCN)NC(=O)[C@H](CO)NC(=O)[C@H](Cc1ccc(O)cc1)NC(=O)[C@H](CC(=O)O)NC(=O)[C@H](CO)NC(=O)[C@@H](NC(=O)[C@H](Cc1ccccc1)NC(=O)[C@@H](NC(=O)CNC(=O)[C@H](CCC(N)=O)NC(=O)[C@H](CO)NC(=O)[C@@H](N)Cc1c[nH]cn1)[C@@H](C)O)[C@@H](C)O)C(=O)N[C@@H](CC(=O)O)C(=O)N[C@@H](CO)C(=O)N[C@@H](CCCCN)C(=O)N[C@@H](CCCNC(=N)N)C(=O)N[C@@H](C)C(=O)N[C@@H](CCC(N)=O)C(=O)N[C@@H](CCC(=O)O)C(=O)N[C@@H](Cc1ccccc1)C(=O)N[C@H](C(=O)N[C@@H](CCC(N)=O)C(=O)N[C@@H](Cc1c[nH]c2ccccc12)C(=O)N[C@@H](CC(C)C)C(=O)N[C@@H](CC(C)C)C(=O)N[C@@H](CCCCNC(=O)COCCOCCNC(=O)COCCOCCNC(=O)CC[C@H](NC(=O)CCCCCCCCCCCCCCCCC(=O)O)C(=O)O)C(=O)N[C@H](C(N)=O)[C@@H](C)O)C(C)C [Example 43, N^ε28 ([2-[2-[2-[[2-[2-[2-[[(4S)-5-hydroxy-4-[(18-hydroxy-18-oxooctadecanoyl)amino]-5-oxopentanoyl]amino]ethoxy]ethoxy]acetyl]amino]ethoxy]ethoxy]acetyl]) [Lys^17, Glu^21 Leu^27, Lys^28] Glucagon peptide amide] (H-HSQGTFTSDYSKYLDSKRAQEFVQWLLK([AEEA-AEEA-γGlu-C18 diacid])T-NH2; N-terminus assumed) | 0.003 |
| CC(C)C[C@H](NC(=O)[C@H](Cc1ccc(O)cc1)NC(=O)[C@H](CCCCN)NC(=O)[C@H](CO)NC(=O)[C@H](Cc1ccc(O)cc1)NC(=O)[C@H](CC(=O)O)NC(=O)[C@H](CO)NC(=O)[C@@H](NC(=O)[C@H](Cc1ccccc1)NC(=O)[C@@H](NC(=O)CNC(=O)[C@H](CCC(N)=O)NC(=O)[C@H](CO)NC(=O)[C@@H](N)Cc1c[nH]cn1)[C@@H](C)O)[C@@H](C)O)C(=O)N[C@@H](CC(=O)O)C(=O)N[C@@H](CO)C(=O)N[C@@H](CCCCN)C(=O)N[C@@H](CCCCN)C(=O)N[C@@H](C)C(=O)N[C@@H](CCC(N)=O)C(=O)N[C@@H](CCC(=O)O)C(=O)N[C@@H](Cc1ccccc1)C(=O)N[C@H](C(=O)N[C@@H](CCCCNC(=O)COCCOCCNC(=O)COCCOCCNC(=O)CC[C@H](NC(=O)CCCCCCCCCCCCCCCCCCC(=O)O)C(=O)O)C(=O)N[C@@H](Cc1c[nH]c2ccccc12)C(=O)N[C@@H](CC(C)C)C(=O)N[C@@H](CC(C)C)C(=O)N[C@@H](CC(N)=O)C(=O)N[C@H](C(=O)O)[C@@H](C)O)C(C)C [Example 66, N^ε24-[2-[2-[2-[[2-[2-[2-[[(4S)-4-carboxy-4-(19-carboxynonadecanoylamino)butanoyl]amino]ethoxy]ethoxy]acetyl]amino]ethoxy]ethoxy]acetyl]-[Lys^17,Lys^18,Glu^21,Lys^24,Leu^27]-Glucagon] (H-HSQGTFTSDYSKYLDSKKAQEFVK([AEEA-AEEA-γGlu-C20 diacid])WLLNT-OH) | 6.35 |

— patent US20170051034A1 (Novo Nordisk A/S, priority 2010, published 2017)
